Columns and labels:
[1] = Cytotoxicity against human CEM-T4 cells assessed as reduction in cell viability after 7 days by MTT assay; assay type: cell-based; conditions: for CC50 at 168 h: CEM-T4 cells; for CC50: 168 h
[2] = Half life of the compound in RPMI media at 37 degC; assay type: physicochemical; conditions: for half-life: RPMI media
[3] = tested on: Human immunodeficiency virus 1; assay: Antiviral activity against HIV1 infected in human CEM-T4 cells assessed as protection against virus-induced cytopathogenicity by measuring reduction in p24 level preincubated with cells for 24 hrs followed by viral infection and measured after 8 days by MTT assay; assay type: functional, organism-based
[4] = Selectivity index, ratio of CC50 for human CEM-T4 cells to EC50 for HIV1 infected in human CEM-T4 cells; assay type: toxicity, cell-based; conditions: read-out: Ratio CC50/EC50
[5] = Prodrug activation in RPMI media assessed as hydrolysis by measuring P-O bond cleavage
[6] = Prodrug activation in RPMI media assessed as hydrolysis by measuring P-O bond cleavage measured after 24 days; conditions: 576 h
[7] = Stability of the compound in RPMI media up to 7 days; assay type: physicochemical; conditions: 168 h
[8] = Human immunodeficiency virus 1, CEM-T4, read-out: EC50

Structure (SMILES) | CC50 at 168 h [1] | half-life [2] | EC50 [3, 8] | selectivity ratio [4] | CC50 [1] | t1/2 [2] | Drug metabolism [5] | EC50 [3] | Drug metabolism [6] | Stability [7]
O=c1ccn([C@H]2CC[C@@H](COP(=O)(Nc3ccccc3)Oc3cccnc3)O2)c(=O)[nH]1 (stereo partly specified) | 225 µM | 120 h | 7.3 µM | 31 |  |  |  |  |  | 
Cc1cn([C@H]2C[C@H](N=[N+]=[N-])[C@@H](COP(=O)(Nc3cccnc3)Oc3ccccc3)O2)c(=O)[nH]c1=O (stereo partly specified) | > 400 µM | 168 h | 0.035 µM | > 11400 |  |  |  |  |  | 
O=c1ccn([C@H]2CC[C@@H](COP(=O)(Nc3cccnc3)Oc3cccnc3)O2)c(=O)[nH]1 (stereo partly specified) | > 200 µM | 20 h | 0.55 µM | > 364 |  |  |  |  |  | 
Cc1cn([C@H]2C[C@H](N=[N+]=[N-])[C@@H](COP(=O)(Nc3ccncc3)Oc3ccccn3)O2)c(=O)[nH]c1=O (stereo partly specified) | > 50 µM | 120 h | 0.16 µM | > 250 |  |  |  |  |  | 
Cc1cn([C@H]2C[C@H](N=[N+]=[N-])[C@@H](COP(=O)(Nc3ccccc3)Oc3cccnc3)O2)c(=O)[nH]c1=O (stereo partly specified) | 360 µM | 82 h | < 0.012 µM | > 30000 |  |  |  |  |  | 
Cc1cn([C@H]2C[C@H](N=[N+]=[N-])[C@@H](COP(=O)(Nc3cccnc3)Oc3ccncc3)O2)c(=O)[nH]c1=O (stereo partly specified) |  |  |  |  | Nd(Unstable) | Nd(Unstable) | Nd(Unstable) | Nd(Unstable) |  | 
Cc1cn([C@H]2C[C@H](N=[N+]=[N-])[C@@H](COP(=O)(Nc3ccccc3)Oc3ccncc3)O2)c(=O)[nH]c1=O (stereo partly specified) |  |  |  |  | Nd(Unstable) | Nd(Unstable) | Nd(Unstable) | Nd(Unstable) |  | 
Cc1cn([C@H]2C[C@H](N=[N+]=[N-])[C@@H](COP(=O)(Nc3cccnc3)Oc3cccnc3)O2)c(=O)[nH]c1=O (stereo partly specified) | > 200 µM | 27 h | < 0.02 µM | > 10000 |  |  |  |  |  | 
Cc1cn([C@H]2C[C@H](N=[N+]=[N-])[C@@H](COP(=O)(Nc3cccnc3)Oc3ccccn3)O2)c(=O)[nH]c1=O (stereo partly specified) | > 200 µM | 33 h | 0.06 µM | > 3300 |  |  |  |  |  | 
Cc1cn([C@H]2C[C@H](N=[N+]=[N-])[C@@H](COP(=O)(Nc3ccccc3)Oc3ccccc3)O2)c(=O)[nH]c1=O (stereo partly specified) | > 66.8 µM |  | 0.075 µM | > 890 |  |  |  |  | Metabolite_Detected | Stable
Cc1cn([C@H]2C[C@H](N=[N+]=[N-])[C@@H](COP(=O)(Nc3ccncc3)Oc3ccccc3)O2)c(=O)[nH]c1=O (stereo partly specified) | > 400 µM | 192 h | 0.05 µM | > 8000 |  |  |  |  |  | 
Cc1cn([C@H]2C[C@H](N=[N+]=[N-])[C@@H](COP(=O)(Nc3ccccc3)Oc3ccccn3)O2)c(=O)[nH]c1=O (stereo partly specified) | > 22 µM | 45 h | < 0.012 µM | > 1830 |  |  |  |  |  | 
Cc1cn([C@H]2C[C@H](N=[N+]=[N-])[C@@H](COP(=O)(Nc3ccncc3)Oc3cccnc3)O2)c(=O)[nH]c1=O (stereo partly specified) | > 50 µM | 105 h | 0.2 µM | > 250 |  |  |  |  |  | 
Cc1cn([C@H]2C[C@H](N=[N+]=[N-])[C@@H](COP(=O)(Nc3ccncc3)Oc3ccncc3)O2)c(=O)[nH]c1=O (stereo partly specified) |  |  |  |  | Nd(Unstable) | Nd(Unstable) | Nd(Unstable) | Nd(Unstable) |  | 
O=c1ccn([C@H]2CC[C@@H](COP(=O)(Nc3cccnc3)Oc3ccccc3)O2)c(=O)[nH]1 (stereo partly specified) | 225 µM | 168 h | > 30 µM | < 7.5 |  |  |  |  |  | 
